# Measured values: patent US5593970A, “Heterocyclic anthracycline analogs” (priority 1994, dated 1997)
# Like-named read-outs stand apart in the source and are kept apart here.
# Columns and labels:
# LOX = experiment: Microculture tetrazolium assay; type: cell-based; conditions: read-out: IC50
# T47D = experiment: Microculture tetrazolium assay; type: cell-based; conditions: read-out: IC50
# SKVLB = experiment: Microculture tetrazolium assay; type: cell-based; conditions: for VLB/OV3: IC50 ratio SKVLB/SKOV3; for IC50: SKVLB, read-out: IC50
# HT29 = experiment: Microculture tetrazolium assay; type: cell-based; conditions: read-out: IC50
# SKOV3 = experiment: Microculture tetrazolium assay; type: cell-based; conditions: read-out: IC50
# SC Lung = experiment: NCI assay, average per cancer type
# solid tumors = experiment: NCI assay, mean potency in solid tumors
# Melanoma = experiment: NCI assay, average per cancer type
# Leukemia = experiment: NCI assay, average per cancer type
# Ovarian = experiment: NCI assay, average per cancer type
# NSC Lung = experiment: NCI assay, average per cancer type
# Renal = experiment: NCI assay, average per cancer type
# CNS = experiment: NCI assay, average per cancer type
# Colon = experiment: NCI assay, average per cancer type
# [1] = Homo sapiens, read-out: Average LOG10 GI50
# [2] = Homo sapiens, 48 h, read-out: Average LOG10 LC50
molecule,measurement,setting,value
CC(=O)C1CC2=C(C(=O)c3cc4ccccc4c(O)c3C2=O)C(O[C@H]2C[C@H](NC(=O)C(F)(F)F)[C@H](OS(C)(=O)=O)[C@H](C)O2)O1 (stereo partly shown) [BCH-2094],IC50,LOX,1.4 µM
same,IC50,T47D; Homo sapiens,6.51 µM
same,VLB/OV3,SKVLB,2.55
same,IC50,SKVLB,12 µM
same,IC50,"HT29; Homo sapiens, HT-29, HT29",1.06 µM
same,IC50,"SKOV3; Homo sapiens, SK-OV-3, SKOV3",4.7 µM
"COc1cccc2c1C(=O)c1c(O)c3c(c(O)c1C2=O)C[C@@](O)(C(C)=O)C[C@@H]3O[C@H]1C[C@H](N)[C@H](O)[C@H](C)O1 [DNM, reference compound]",GI50,SC Lung; [1],0.0724 µM
same,Average LOG10 LC50,"SC Lung; SC Lung, 2880 min",-5.58 ± 0.09 log molar
same,GI50,"solid tumors; Homo sapiens, read-out: Average LOG10 GI50, Mean Potency in solid tumors",0.112 µM
same,"Average LOG10 LC50, Mean Potency in solid tumors","solid tumors; solid tumors, 2880 min",-5.11 ± 0.34 log molar
same,CC50,Melanoma; [2],2.29 µM
same,GI50,Melanoma; [1],0.112 µM
same,Average LOG10 LC50,"Melanoma; Melanoma, 2880 min",-5.64 ± 0.17 log molar
same,CC50,"Leukemia; 48 h, read-out: Average LOG10 LC50",50.1 µM
same,Average LOG10 LC50,"Leukemia; Leukemia, 2880 min",-4.30 ± 0.36 log molar
same,GI50,Leukemia; read-out: Average LOG10 GI50,0.0562 µM
same,GI50,Ovarian; [1],0.138 µM
same,Average LOG10 LC50,"Ovarian; Ovarian, 2880 min",-4.78 ± 0.20 log molar
same,CC50,NSC Lung; [2],8.51 µM
same,GI50,NSC Lung; [1],0.0912 µM
same,Average LOG10 LC50,"NSC Lung; NSC Lung, 2880 min",-5.07 ± 0.37 log molar
same,CC50,Renal; [2],16.6 µM
same,GI50,Renal; [1],0.162 µM
same,Average LOG10 LC50,"Renal; Renal, 2880 min",-4.78 ± 0.46 log molar
same,Average LOG10 LC50,"CNS; CNS, 2880 min",-5.08 ± 0.42 log molar
same,GI50,CNS; [1],0.0912 µM
same,Average LOG10 LC50,"Colon; Colon, 2880 min",-4.83 ± 0.37 log molar
same,CC50,Colon; [2],14.8 µM
same,GI50,Colon; [1],0.151 µM
"(1'S,1R,3R) and (1'S,1S,3S)-5,12-dioxo-3-ethyl-6-hydroxy-1-(2',3',6'-trideoxy-3'-trifluoroacetamido-4'-O-p-nitrobenzoyl-L-lyxohexopyranose)-3,4,5,12-tetrahydroanthraceno[2,3-C]pyran [BCH-1199]",IC50,LOX,> 100 µM
same,IC50,T47D,46.2 µM
same,IC50,SKVLB,> 100 µM
same,IC50,HT29; HT29,> 100 µM
same,IC50,SKOV3; SKOV3,32.3 µM
"(1'S,1R,3S) and (1'S,1S,3R)-Methyl-1-(2',3',6'-trideoxy-3-trifluoroacetamido-4'-O-p-nitrobenzoyl-L-lyxohexopyranose)-6,11'dioxo-5'-hydroxy-12-acetoxy-3,4,6,11-tetrahydroanthra-ceno-[2,3-C]-pyran-3-yl) ketone [BCH-1163]",IC50,LOX,26.1 µM
same,IC50,T47D,5 µM
same,VLB/OV3,SKVLB,1.05
same,IC50,SKVLB,11.6 µM
same,IC50,HT29; HT29,4.67 µM
same,IC50,SKOV3; SKOV3,11 µM
